Entries after “also recorded” stand apart in the source; their conditions may differ.
How the values were obtained:
[1] = molecular target: pUL50 (Human cytomegalovirus) (UniProt P16791); assay: ITC; settings: cited from earlier work
His-tag = molecular target: His-tag; design: method as in PMID 16028931; settings: read-out: molecular binding affinity of Ni(II)-NTA for His-tag; cited from earlier work
mNeonGreen-His6 = assay: MST: mNeonGreen-His6 negative control against SB203580 in HeLa cell lysate; assay type: binding

UniProt P16791, sequence (P16791 whole entry): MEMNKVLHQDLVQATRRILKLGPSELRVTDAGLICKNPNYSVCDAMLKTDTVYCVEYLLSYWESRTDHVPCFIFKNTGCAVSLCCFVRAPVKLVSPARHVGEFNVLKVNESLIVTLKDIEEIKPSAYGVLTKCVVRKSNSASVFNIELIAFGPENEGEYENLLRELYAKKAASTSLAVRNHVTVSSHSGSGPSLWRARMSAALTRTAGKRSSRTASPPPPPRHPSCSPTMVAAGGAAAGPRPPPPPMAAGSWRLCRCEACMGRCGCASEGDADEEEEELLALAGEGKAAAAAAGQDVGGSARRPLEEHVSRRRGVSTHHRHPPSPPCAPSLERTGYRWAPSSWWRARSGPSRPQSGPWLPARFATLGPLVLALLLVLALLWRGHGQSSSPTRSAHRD

## pUL53 (from UniProt P16794)
[1]
  Kd: 0.29 µM

## O=C(O)CN(CC(=O)O)CC(=O)O [NTA, nitrilotriacetic acid]
His-tag
  Kd: ~10 µM

## C[S+]([O-])c1ccc(-c2nc(-c3ccncc3)c(-c3ccc(F)cc3)[nH]2)cc1 (stereo not drawn) [SB203580]
mNeonGreen-His6
  binding to RED-tris-NTA labeled mNeonGreen-His6 (p38α-free negative control): no binding could be detected; also recorded: did not yield a binding curve

Reference: article PMC5862892, “Near-native, site-specific and purification-free protein labeling for quantitative protein interaction analysis by MicroScale Thermophoresis” (Scientific Reports, 2018)
